# Values joined by “and” are separate entries in the source; they are usually repeats but may differ in a detail not shown here. Equal values may be shown once.
# System: parturition in the rat
# Experiment: Parturition with test compound and progesterone antagonist RU-486 (Example 3)
# Type: in vivo, Sprague-Dawley rat
# Conditions: test compound 20 mg/kg/day (Group 3)
# Experimental: In order to determine if the effects in the experiments conducted in Examples 1 and 2 were due to decreased progesterone catabolism associated with inhibition of 5α-reductase by the 5α-reductase type 1 inhibitor 3-oxo-4-aza-4,7β-dimethyl-16β-(4-chlorophenoxy)-5α-androstane ("test compound"), the following study was performed with the 5α-reductase inhibitor 3-oxo-4-aza-4,7β-dimethyl-16β-(4-chlorophenoxy)-5α-androstane and the progesterone antagonist RU-486.
# Fifty-six pregnant female Sprague-Dawley rats (Charles River Laboratories, Raleigh, N.C.), approximately 10.5 weeks old weighing from 212 to 319 grams were employed in the study. They were fed and housed as described in EXAMPLE 1. The females were assigned to the following groups based on a weight independent random allocation scheme:
# Control (Control article)
# test compound @ 20 mg/kg/day
# A dose of 10 mg/kg off RU-486 was selected based on the studies of Abdellilah et al., Progesterone and Mifepristone modify principally the response of circular myometrium to oxytocin in preparturient rats: comparison with response to acetylcholine and to calcium J. Pharmacol. and Exp. Therp.
# The drugs were administered by oral gavage. The control article and vehicle consisted of 0.5% methylcellulose in deionized water with 0.02% sodium lauryl sulfate (SLS) and were prepared on a weekly basis and refrigerated when not in use. The test compound formulation (4 mg/mL, in vehicle) was prepared on a weekly basis and was refrigerated when not in use. The RU-486 formulation (2 mg base compound/mL, in 0.5% methylcellulose in deionized water) was prepared on a daily basis.
smiles,measurement,setting,value
"C[C@H]1C[C@H]2N(C)C(=O)CC[C@]2(C)[C@H]2CC[C@]3(C)C[C@@H](Oc4ccc(Cl)cc4)C[C@H]3[C@H]12 [test compound, 3-oxo-4-aza-4,7β-dimethyl-16β-(4-chlorophenoxy)-5α-androstane]",number of females completing parturition,delivery day GD 22.0,1
same,number of females completing parturition,delivery day GD 23.0,2
same,number of females completing parturition,delivery day GD 24,3
same,Sacrificed Early (on GD 24 due to failure to initiate or complete parturition),,7
same,females that failed to initiate or complete parturition,,drug related increase in females that failed to initiate or complete parturition
same,Mean Length of Gestation ± SD,"only females completing delivery, 20 mg/kg/day",23.3 days and 23.3 ± 0.8 days

# From patent US5872126A, “Methods and compositions for treating preterm labor” (priority 1997, dated 1999)
